The source of these data is US20090111781A1, “Use of Cymipristone Type Compounds in Aids Treatment” (SHANGHAI THREE-ALLIANCE BIOTECHNOLOGIES CO., LTD., priority 2005, published 2009).

Assay [1] addresses T1, glucocorticoid receptor of rat hepatic cytoplasm (Rattus norvegicus, UniProt P06536).
T1 construct: centrifuge at 175000 g for 1 hour, and take out the supernatant liquid as reserve; from tissue; host or cells: liver cytosol (175000 g supernatant) of adrenalectomised female SD rats
T1 sequence (P06536 1-795): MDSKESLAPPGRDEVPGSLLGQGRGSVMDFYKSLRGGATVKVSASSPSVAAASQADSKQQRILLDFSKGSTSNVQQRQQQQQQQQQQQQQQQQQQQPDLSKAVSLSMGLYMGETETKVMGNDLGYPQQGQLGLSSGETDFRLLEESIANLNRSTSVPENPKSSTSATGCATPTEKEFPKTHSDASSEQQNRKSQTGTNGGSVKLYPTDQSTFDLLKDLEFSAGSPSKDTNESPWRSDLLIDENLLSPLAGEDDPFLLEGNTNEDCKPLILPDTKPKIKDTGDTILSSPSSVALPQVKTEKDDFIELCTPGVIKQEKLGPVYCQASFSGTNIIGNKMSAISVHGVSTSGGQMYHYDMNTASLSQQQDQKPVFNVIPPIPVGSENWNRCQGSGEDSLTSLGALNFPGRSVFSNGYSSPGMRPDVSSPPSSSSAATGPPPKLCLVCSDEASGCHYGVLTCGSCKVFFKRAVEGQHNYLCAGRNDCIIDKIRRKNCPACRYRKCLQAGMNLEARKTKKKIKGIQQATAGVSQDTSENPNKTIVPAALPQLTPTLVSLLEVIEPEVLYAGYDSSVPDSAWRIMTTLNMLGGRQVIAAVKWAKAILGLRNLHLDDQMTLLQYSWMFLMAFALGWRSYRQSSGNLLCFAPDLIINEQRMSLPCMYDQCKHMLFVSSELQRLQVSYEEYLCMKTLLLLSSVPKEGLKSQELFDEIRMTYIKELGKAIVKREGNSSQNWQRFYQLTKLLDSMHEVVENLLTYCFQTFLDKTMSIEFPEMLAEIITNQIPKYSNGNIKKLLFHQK
Nature of the assay: Competition inhibition of [3H]-dexamethasone binding in rat hepatic cytoplasm. As for the experimental part: Clean female SD rats, body weight 200-250 g, are fed with certain quantity of food and freely drink water. The temperature is controlled at about 24° C. and an illumination cycle are for 11 hours by day and 13 hours at night. All animals are observed for 1 week before experiment. Incisions are made on two sides below arch of ribs on dorsal position of rats to extirpate adrenal glands. After operation, the rats are fed with physiological saline to maintain water-electrolyte balance. On the third day after operation, animals are acutely executed. The liver is taken out immediately and placed in ice cold buffer solution; the blood should be washed off as much as possible. Take certain quantity of tissue, add buffer solution (1:4), cut the tissue with scissors, intermittently homogenize the tissue under low temperature, centrifuge at 175000 g for 1 hour, and take out the supernatant liquid as reserve. […] Then carry out the competition inhibition experiment.

The next assay has as its system thymus gland cells. The experiment in a line: Anti-glucocorticoid activity test, [3H]-TdR incorporation in rat thymus gland cells. The class given is cell-based. To be noted: for Antagonism against dexamethasone (incorporation rate of [3H]-TdR): n = 4. As for the experimental part: Clean female SD rats, body weight 200-250 g, are fed with certain quantity of food and freely drink water. The temperature is controlled at about 24° C. and an illumination cycle are for 11 hours by day and 13 hours at night. All animals are observed for 1 week before experiment. Rats are anesthetized with ethyl ether. Incisions are made on two sides below costal arch of ribs on dorsal position of rats to extirpate adrenal glands. The rats are fed with physiological saline after operation. On the seventh day, animals are acutely executed. Take out thymus gland to place in to HBSS buffer solution, wash twice, remove connective tissue, cut the tissue with scissors, lightly grind with homogenizer, filter with three layers of gauze, and centrifuge the filtrate for 5 min (500 rpm). Wash the precipitated cells twice with HBSS, re-suspend the cells in RPMI1640 culture medium for cell count and cell survival rate determination, and adjust cell concentration to 1×10^7/ml. Determination of anti-glucocorticoid activity: Add tested compound into culture medium, reaction concentration 6×10^−[…], and place in 37° C. incubator for 3 hours. Add thymus gland cells to make cell concentration to become 10^7/ml and incubate at 37° C. for 3 hours. Add 1 μCi of label substance, mix, and incubate for 1 hour. Add 100 μl of ice cold 5% trichloroacetic acid to end the reaction. Place the test tube on ice and wash twice with 2 ml of ice cold 5% trichloroacetic acid and centrifuge twice, 500 rpm×5 min, Add 0.5 ml of 1N NaOH to dissolve the precipitated cells, pipet out the liquid, dry the residue with cotton stick, place into same scintillation bottle, and determine the radioactivity by liquid scintillation counter.
Calculate the incorporation rate of [^3H]-TdR:
In which: T=[^3H]-TdR count without presence of compound, Td=count with presence of compound, and NSB=non-specific adsorption.
Inhibition rate=100%−incorporation rate

[2] abbreviates: Rattus norvegicus, read-out: Residual inhibition rate of dexamethasone.

The IC50 is the concentration needed to halve the response being measured. Read a low IC50 as greater potency. By inhibition is commonly meant the percentage by which the read-out fell short of the control.

Regarding `CC#C[C@]1(O)CC[C@H]2[C@@H]3CCC4=CC(=O)CCC4=C3[C@@H](c3ccc(N(C)C4CCCCC4)cc3)C[C@@]21C` [Cymipristone, 11β-[4-(N-methyl-N-cyclohexylamino)phenyl]-17α-(1-propynyl)-17β-hydroxyl-4,9-estradiene-3-one], in assay [1] (cymipristone : mifepristone), the IC50 ratio worked out at 1.00. In addition, in assay [1] (dexamethasone : cymipristone : mifepristone), the RBA ratio was found to be 5.6. The “Relative binding activity RBA” value in assay [1] (dexamethasone as 100, mean ± SD, n = 4) was found to be 557.69 ± 65.23%. For the same compound, in assay [1] (mean ± SD, n = 4), the IC50 was determined as 2.6 nM. For the same compound, the inhibition at 0.1 µM in assay [1] (tested compound 1 × 10^−7 mol/L, mean ± SD, n = 4, read-out: Inhibition rate on binding of [3H]-dexamethasone) is 88.9 ± 9.01%. In assay [1] (tested compound 2 × 10^−8 mol/L, mean ± SD, n = 4, read-out: Inhibition rate on binding of [3H]-dexamethasone), the inhibition at 0.02 µM is 75.6 ± 3.56%. The inhibition at 0.004 µM in assay [1] (tested compound 4 × 10^−9 mol/L, mean ± SD, n = 4, read-out: Inhibition rate on binding of [3H]-dexamethasone) amounted to 54.5 ± 4.24%. Also, the inhibition at 0.5 µM in assay [1] (tested compound 5 × 10^−7 mol/L, mean ± SD, n = 4, read-out: Inhibition rate on binding of [3H]-dexamethasone) is 95.4 ± 5.34%. For the same compound, the inhibition at 0.0008 µM in assay [1] (tested compound 8 × 10^−10 mol/L, mean ± SD, n = 4, read-out: Inhibition rate on binding of [3H]-dexamethasone) was found to be 31.2 ± 3.87%. Also, in assay [1] (tested compound 16 × 10^−10 mol/L, mean ± SD, n = 4, read-out: Inhibition rate on binding of [3H]-dexamethasone), the inhibition at 0.0016 µM came out at 17.2 ± 6.76%. In the assay with thymus gland cells, the “Anti-glucocorticoid activity (in words)” value is “Result shows that cymipristone has anti-glucocorticoid activity”. Moreover, in the assay with thymus gland cells (setting [2]), the activity at 0.06 µM was found to be 35.2 ± 2.4%, the activity at 0.2 µM is 57.7 ± 3.5%, the activity at 0.6 µM turned out to be 42.2 ± 1.9% and the activity at 2 µM was 64.1 ± 5.6%. For the same compound, the “Antagonism against dexamethasone (incorporation rate of [3H]-TdR)” value (“Antagonism against dexamethasone” below) in the assay with thymus gland cells (cymipristone 2 × 10^−6 mol/L with dexamethasone 6×10^−8 mol/L) was 63.6 ± 5.1%. Also, the “Antagonism against dexamethasone” value in the assay with thymus gland cells (cymipristone 2 × 10^−7 mol/L with dexamethasone 6×10^−8 mol/L) came to 67.2 ± 2.9%. The “Antagonism against dexamethasone” value in the assay on thymus gland cells (cymipristone 6 × 10^−7 mol/L with dexamethasone 6×10^−8 mol/L) amounted to 76.0 ± 3.8%. The “Antagonism against dexamethasone” value in the assay with thymus gland cells (cymipristone 6 × 10^−8 mol/L with dexamethasone 6×10^−8 mol/L) worked out at 80.0 ± 4.3%.
